# Positions of bridges follow the written chain, without caps; N, C: chain ends. Non-standard residues stand in square brackets, D forms with d. Residues, ends and D or L forms follow the SMILES beside them. Chains are numbered I, II in the order given. d(aIle) = CC[C@H](C)[C@@H](N)C(=O)O; dNMeF = CN[C@H](Cc1ccccc1)C(=O)O; Nphe = O=C(O)CNCc1ccccc1
# Key:
# Format in all cases: cell-based
# [1] = test system: Bacillus subtilis ATCC 6051; assay: microbe, parasite or virus in culture; settings: for MIC Bacillus subtilis ATCC 6051 / MIC B. subtilis: ATCC 6051, 16 h
# Description: (§1) We determined the MIC values of these teixobactin swapmer prodrugs against the Gram-positive bacteria Bacillus subtilis, Staphylococcus epidermidis, methicillin-susceptible Staphylococcus aureus (MSSA), and methicillin-resistant Staphylococcus aureus (MRSA) in a broth microdilution assay as described previously.[9],[10] We used the antibiotic vancomycin as a positive control and the Gram-negative bacterium Escherichia coli as a negative control. The MIC values for Lys10-teixobactin 1, Lys10-teixobactin prodrug 2, Arg10-teixobactin 6, and Arg10-teixobactin prodrug 7 are shown in Table 1 for comparison with the swapmer analogues.
# (§2) We performed minimum inhibitory concentration (MIC) assays as previously described.[9] A concise procedure is detailed below.
# (§3) Stock solutions of teixobactin analogues were prepared gravimetrically by dissolving an appropriate amount of peptide in 20 mg/mL sterile DMSO. The stock solutions were stored at −20 °C for subsequent experiments.
# (§4) Bacillus subtilis (ATCC 6051), Staphylococcus epidermidis (ATCC 14990), methicillin-susceptible Staphylococcus aureus (MSSA) (ATCC 29213), and Escherichia coli (ATCC 10798) were cultured from glycerol stocks in Mueller-Hinton broth containing 0.002% polysorbate 80 overnight in a shaking incubator at 37 °C. Methicillin-resistant Staphylococcus aureus (MRSA) (ATCC 700698) was cultured from a glycerol stock in brain hearth infusion broth containing 0.002% polysorbate 80 overnight in a shaking incubator at 37 °C. After overnight incubation, each culture was diluted with the appropriate media (containing 0.002% polysorbate 80) to 1 × 10^6 colony-forming units (CFU)/mL as previously described.[12],[15],[16] Briefly, we have previously determined the CFU/mL for each bacterium at OD600 = 0.075 for 200 μL of bacterial culture in a 96-well plate. The OD600 of each overnight culture was determined, and then each culture was diluted to OD600 = 0.075. Cultures were further diluted to achieve 1 × 10^6 CFU/mL solutions.
# (§5) Aliquots of the 20 mg/mL peptide stock solutions were diluted to make a 64 μg/mL solution in Mueller-Hinton broth containing 0.002% polysorbate 80 and a 64 μg/mL solution in brain heart infusion broth containing 0.002% polysorbate 80. The solutions were mixed by pipetting to ensure homogeneity. A 200-μL aliquot of a 64 μg/mL solution was transferred to a 96-well plate. 2-fold serial dilutions were made with media containing 0.002% polysorbate 80 across the 96-well plate to achieve a final volume of 100 μL in each well (initial concentrations ranging from 64 to 0.0625 μg/mL). A 100-μL aliquot of a 1 × 10^6 CFU/mL bacterial solution was added to each well in the series, resulting in final bacterial concentrations of 5 × 10^5 CFU/mL in each well. As 100 μL of bacteria were added to each well, the concentration of peptide was also diluted 2-fold (final concentrations ranging from 32 μg/mL to 0.03125 μg/mL). Each plate was covered with a lid and incubated at 37 °C for 16 h. The optical density measurements were measured at 600 nm using a 96-well UV–vis plate reader (MultiSkan GO, Thermo Scientific). The MIC values were taken as the lowest concentration that had no bacterial growth. MIC assays for each compound were performed in triplicate to ensure reproducibility.
# [2] = test system: Escherichia coli ATCC 10798; assay: microbe, parasite or virus in culture; settings: for MIC Escherichia coli ATCC 10798: ATCC 10798, 16 h
# Description: as §1, §2, §3, §4, §5
# [3] = test system: Staphylococcus aureus (MRSA) ATCC 700698; assay: microbe, parasite or virus in culture; settings: for MIC Staphylococcus aureus (MRSA) ATCC 700698: ATCC 700698, 16 h
# Description: as §1, §2, §3, §4, §5
# [4] = test system: Staphylococcus aureus (MSSA) ATCC 29213; assay: microbe, parasite or virus in culture; settings: for MIC Staphylococcus aureus (MSSA) ATCC 29213: ATCC 29213, 16 h
# Description: as §1, §2, §3, §4, §5
# [5] = test system: Staphylococcus epidermidis ATCC 14990; assay: microbe, parasite or virus in culture; settings: for MIC Staphylococcus epidermidis ATCC 14990: ATCC 14990, 16 h
# Description: as §1, §2, §3, §4, §5
# all bacteria tested = assay: MIC broth microdilution assay, summary over all bacteria; settings: all bacteria tested other than B. subtilis
# Description: as §1, §2, §3
# as §4, with “After overnight incubation, each culture was diluted with the appropriate media (containing 0.002% polysorbate 80) to 1 × 10^6 colony-forming units (CFU)/mL as previously described.[12],[15],[16]” left out, “Cultures were further diluted to achieve 1 × 10^6 CFU/mL solutions.” left out
# Aliquots of the 20 mg/mL peptide stock solutions were diluted to make a 64 μg/mL solution in Mueller-Hinton broth containing 0.002% polysorbate 80 and a 64 μg/mL solution in brain heart infusion broth containing 0.002% polysorbate 80. […] The optical density measurements were measured at 600 nm using a 96-well UV–vis plate reader (MultiSkan GO, Thermo Scientific). […]
# [6] = test system: Gram-positive bacteria tested; settings: 16 h
# Description: as §1, §2, §3, §4
# Aliquots of the 20 mg/mL peptide stock solutions were diluted to make a 64 μg/mL solution in Mueller-Hinton broth containing 0.002% polysorbate 80 and a 64 μg/mL solution in brain heart infusion broth containing 0.002% polysorbate 80. The solutions were mixed by pipetting to ensure homogeneity. A 200-μL aliquot of a 64 μg/mL solution was transferred to a 96-well plate. 2-fold serial dilutions were made with media containing 0.002% polysorbate 80 across the 96-well plate to achieve a final volume of 100 μL in each well (initial concentrations ranging from 64 to 0.0625 μg/mL). […] The optical density measurements were measured at 600 nm using a 96-well UV–vis plate reader (MultiSkan GO, Thermo Scientific). […]
SMILES,MIC Bacillus subtilis ATCC 6051 [1],antibiotic activity in words against B. subtilis ([1]; concentration range tested up to 32 μg/mL),MIC Escherichia coli ATCC 10798 [2],MIC Staphylococcus aureus (MRSA) ATCC 700698 [3],MIC Staphylococcus aureus (MSSA) ATCC 29213 [4],MIC Staphylococcus epidermidis ATCC 14990 [5],antibiotic activity in words against all other bacteria tested (all bacteria tested),MIC B. subtilis [1],MIC values against the Gram-positive bacteria tested [6],"fold reduced activity compared to the unswapped analogues 1, 2, 6, and 7 [6]","MIC ([1]; Bacillus subtilis, ATCC6051, 16 h, read-out: MIC Bacillus subtilis ATCC 6051)","MIC ([2]; Escherichia coli, ATCC10798, 16 h, read-out: MIC Escherichia coli ATCC 10798)","MIC ([3]; Staphylococcus aureus, 16 h, read-out: MIC Staphylococcus aureus (MRSA) ATCC 700698)","MIC ([4]; Staphylococcus aureus, 16 h, read-out: MIC Staphylococcus aureus (MSSA) ATCC 29213)","MIC ([5]; Staphylococcus epidermidis, ATCC14990, 16 h, read-out: MIC Staphylococcus epidermidis ATCC 14990)"
"CC[C@H](C)[C@H](NC(=O)CNCc1ccccc1)C(=O)N[C@@H](CO)C(=O)N[C@H](C(=O)N[C@@H](CCC(N)=O)C(=O)N[C@H](C(=O)OC[C@H](N)C(=O)N[C@H]1C(=O)N[C@@H](C)C(=O)N[C@@H](CCCCN)C(=O)N[C@@H]([C@@H](C)CC)C(=O)O[C@H]1C)[C@@H](C)CC)[C@@H](C)CC [compound 5, N-Bn-Gly1,Ile4,Gln5,[Ile6-O-Ser7],Lys10-teixobactin] (I: H-[Nphe]ISIQI / II: H-S[dT]AKI; ester I:C-II:1, II:2-II:C)",32 µg/mL,only very weakly active,>32 µg/mL,>32 µg/mL,>32 µg/mL,>32 µg/mL,inactive,–,–,–,–,–,–,–,–
"CC[C@H](C)[C@H](NC(=O)[C@@H](Cc1ccccc1)NC)C(=O)N[C@@H](CO)C(=O)N[C@H](CCC(N)=O)C(=O)N[C@@H](C(=O)N[C@H](C(=O)N[C@@H](CO)C(=O)N[C@H]1C(=O)N[C@@H](C)C(=O)N[C@@H](CCCNC(=N)N)C(=O)N[C@@H]([C@@H](C)CC)C(=O)O[C@H]1C)[C@@H](C)CC)[C@@H](C)CC [compound 6, Arg10-teixobactin]",≤0.0313 µg/mL,–,>32 µg/mL,2 µg/mL,2 µg/mL,0.5 µg/mL,–,≤ 0.0625 µg/mL,–,–,–,–,–,–,–
"CC[C@H](C)[C@H](NC(=O)[C@@H](Cc1ccccc1)NC)C(=O)N[C@@H](CO)C(=O)N[C@H](CCC(N)=O)C(=O)N[C@@H](C(=O)N[C@H](C(=O)OC[C@H](N)C(=O)N[C@H]1C(=O)N[C@@H](C)C(=O)N[C@@H](CCCNC(=N)N)C(=O)N[C@@H]([C@@H](C)CC)C(=O)O[C@H]1C)[C@@H](C)CC)[C@@H](C)CC [compound 7, [Ile6-O-Ser7],Arg10-teixobactin] (I: H-[dNMeF]IS[dQ][d(aIle)]I / II: H-S[dT]ARI; ester I:C-II:1, II:2-II:C)",0.0625 µg/mL,–,>32 µg/mL,1 µg/mL,2 µg/mL,0.5 µg/mL,–,≤ 0.0625 µg/mL,–,–,–,–,–,–,–
"CC[C@H](C)[C@H](NC(=O)[C@H](CO)NC(=O)[C@@H](NC(=O)[C@@H](Cc1ccccc1)NC)[C@@H](C)CC)C(=O)N[C@@H](CCC(N)=O)C(=O)N[C@H](C(=O)OC[C@H](N)C(=O)N[C@H]1C(=O)N[C@@H](C)C(=O)N[C@@H](CCCNC(=N)N)C(=O)N[C@@H]([C@@H](C)CC)C(=O)O[C@H]1C)[C@@H](C)CC [compound 8, Ile4,Gln5,[Ile6-O-Ser7],Arg10-teixobactin] (I: H-[dNMeF]ISIQI / II: H-S[dT]ARI; ester I:C-II:1, II:2-II:C)",2 µg/mL,–,>32 µg/mL,4 µg/mL,4 µg/mL,2 µg/mL,–,–,2 to 4 µg/mL,2–4 fold,–,–,–,–,–
"CN[C@H](CC(C)C)C(=O)N[C@H]1C(=O)N[C@@H](CC(N)=O)C(=O)N[C@H]2C(=O)N[C@H]3C(=O)N[C@H](C(=O)N[C@H](C(=O)O)c4cc(O)cc(O)c4-c4cc3ccc4O)[C@H](O)c3ccc(c(Cl)c3)Oc3cc2cc(c3O[C@@H]2O[C@H](CO)[C@@H](O)[C@H](O)[C@H]2O[C@H]2C[C@](C)(N)[C@H](O)[C@H](C)O2)Oc2ccc(cc2Cl)[C@H]1O [vancomycin, reference compound]",–,–,–,–,–,–,–,–,–,–,0.125 to 0.25 µg/mL,> 32 µg/mL,4 µg/mL,1 to 2 µg/mL,1 to 2 µg/mL

# Reference: paper PMC11494653, “Teixobactin “Swapmers” with L Tail Stereochemistry Retain Antibiotic Activity” (The Journal of Organic Chemistry, 2024)
